Assay: Example 1: kidney biomarkers (urea nitrogen, creatinine, GFR) in short bowel syndrome patients, every four weeks for 24 weeks; also sorted by >5% change from baseline
Format: in vivo, Human
Conditions: for CREATININE (RATE BLANKED) change from baseline −5% <= and <=5%, number of patients / CREATININE (RATE BLANKED) change from baseline −5% <= and <=5%, percent of patients / GFR change from baseline <−5%, number of patients / GFR change from baseline <−5%, percent of patients / GFR change from baseline >5%, number of patients / GFR change from baseline >5%, percent of patients / GFR change from baseline −5% <= and <=5%, number of patients / GFR change from baseline −5% <= and <=5%, percent of patients / UREA NITROGEN change from baseline <−5%, number of patients / UREA NITROGEN change from baseline <−5%, percent of patients / UREA NITROGEN change from baseline >5%, number of patients / UREA NITROGEN change from baseline >5%, percent of patients / UREA NITROGEN change from baseline −5% <= and <=5%, number of patients / UREA NITROGEN change from baseline −5% <= and <=5%, percent of patients / CREATININE (RATE BLANKED) change from baseline <−5%, number of patients / CREATININE (RATE BLANKED) change from baseline <−5%, percent of patients / CREATININE (RATE BLANKED) change from baseline >5%, number of patients / CREATININE (RATE BLANKED) change from baseline >5%, percent of patients: 0.1 mg/kg/day
Protocol: Human patients with short bowel syndrome were divided into three groups: a control group (16 total individuals) to receive placebo, an experimental group (35 total individuals) to receive teduglutide at 0.05 mg/kg/day throughout the study, and an experimental group (32 total individuals) to receive teduglutide at 0.1 mg/kg/day throughout the study. Patients were treated by subcutaneous injection of placebo or the appropriate dose of teduglutide. As individuals with short bowel syndrome are likely to experience associated liver and kidney disease, known biomarkers of liver and kidney function were monitored every four weeks, for 24 weeks. The liver biomarkers tested included total bilirubin, ALT and AST and ALP. The kidney biomarkers tested included urea nitrogen, creatinine and GFR. Before administration of placebo or teduglutide, diagnostic biomarker levels were tested to establish a baseline for each individual.
To visualize the effect of GLP-2 on the levels of the diagnostic biomarkers, the average change from baseline was calculated for the placebo and teduglutide treated groups for each visit after a baseline was established. The average change from baseline of each group is depicted in FIGS. 1-7. The numerical figures for each diagnostic biomarker at each time point are depicted in Table 1.
The raw data for this sorting is reproduced in Table 2 below.

CC[C@H](C)[C@H](NC(=O)[C@H](Cc1ccccc1)NC(=O)[C@H](CC(=O)O)NC(=O)[C@H](CCCNC(=N)N)NC(=O)[C@H](C)NC(=O)[C@H](C)NC(=O)[C@H](CC(C)C)NC(=O)[C@H](CC(N)=O)NC(=O)[C@H](CC(=O)O)NC(=O)[C@H](CC(C)C)NC(=O)[C@@H](NC(=O)[C@@H](NC(=O)[C@H](CC(N)=O)NC(=O)[C@H](CCSC)NC(=O)[C@H](CCC(=O)O)NC(=O)[C@H](CC(=O)O)NC(=O)[C@H](CO)NC(=O)[C@H](Cc1ccccc1)NC(=O)[C@H](CO)NC(=O)CNC(=O)[C@H](CC(=O)O)NC(=O)CNC(=O)[C@@H](N)Cc1c[nH]cn1)[C@@H](C)O)[C@@H](C)CC)C(=O)N[C@@H](CC(N)=O)C(=O)N[C@@H](Cc1c[nH]c2ccccc12)C(=O)N[C@@H](CC(C)C)C(=O)N[C@H](C(=O)N[C@@H](CCC(N)=O)C(=O)N[C@H](C(=O)N[C@@H](CCCCN)C(=O)N[C@H](C(=O)N[C@H](C(=O)N[C@@H](CC(=O)O)C(=O)O)[C@@H](C)O)[C@@H](C)CC)[C@@H](C)O)[C@@H](C)CC [teduglutide]
CREATININE (RATE BLANKED) change from baseline −5% <= and <=5%, number of patients (week 12): 4 | CREATININE (RATE BLANKED) change from baseline −5% <= and <=5%, percent of patients (week 12): (12.5%) | GFR change from baseline <−5%, number of patients (week 12): 11 | GFR change from baseline <−5%, percent of patients (week 12): (34.4%) | GFR change from baseline >5%, number of patients (week 12): 9 | GFR change from baseline >5%, percent of patients (week 12): (28.1%) | GFR change from baseline −5% <= and <=5%, number of patients (week 12): 10 | GFR change from baseline −5% <= and <=5%, percent of patients (week 12): (31.3%) | UREA NITROGEN change from baseline <−5%, number of patients (week 12): 13 | UREA NITROGEN change from baseline <−5%, percent of patients (week 12): (40.6%) | UREA NITROGEN change from baseline >5%, number of patients (week 12): 14 | UREA NITROGEN change from baseline >5%, percent of patients (week 12): (43.8%) | UREA NITROGEN change from baseline −5% <= and <=5%, number of patients (week 12): 3 | UREA NITROGEN change from baseline −5% <= and <=5%, percent of patients (week 12): (9.4%) | CREATININE (RATE BLANKED) change from baseline <−5%, number of patients (week 16): 10 | CREATININE (RATE BLANKED) change from baseline <−5%, percent of patients (week 16): (31.3%) | CREATININE (RATE BLANKED) change from baseline >5%, number of patients (week 16): 12 | CREATININE (RATE BLANKED) change from baseline >5%, percent of patients (week 16): (37.5%) | CREATININE (RATE BLANKED) change from baseline −5% <= and <=5%, number of patients (week 16): 8 | CREATININE (RATE BLANKED) change from baseline −5% <= and <=5%, percent of patients (week 16): (25.0%) | GFR change from baseline <−5%, number of patients (week 16): 12 | GFR change from baseline <−5%, percent of patients (week 16): (37.5%) | GFR change from baseline >5%, number of patients (week 16): 12 | GFR change from baseline >5%, percent of patients (week 16): (37.5%) | GFR change from baseline −5% <= and <=5%, number of patients (week 16): 6 | GFR change from baseline −5% <= and <=5%, percent of patients (week 16): (18.8%) | UREA NITROGEN change from baseline <−5%, number of patients (week 16): 9 | UREA NITROGEN change from baseline <−5%, percent of patients (week 16): (28.1%) | UREA NITROGEN change from baseline >5%, number of patients (week 16): 9 | UREA NITROGEN change from baseline >5%, percent of patients (week 16): (28.1%) | UREA NITROGEN change from baseline −5% <= and <=5%, number of patients (week 16): 12 | UREA NITROGEN change from baseline −5% <= and <=5%, percent of patients (week 16): (37.5%) | CREATININE (RATE BLANKED) change from baseline <−5%, number of patients (week 20): 7 | CREATININE (RATE BLANKED) change from baseline <−5%, percent of patients (week 20): (21.9%) | CREATININE (RATE BLANKED) change from baseline >5%, number of patients (week 20): 13 | CREATININE (RATE BLANKED) change from baseline >5%, percent of patients (week 20): (40.6%) | CREATININE (RATE BLANKED) change from baseline −5% <= and <=5%, number of patients (week 20): 9 | CREATININE (RATE BLANKED) change from baseline −5% <= and <=5%, percent of patients (week 20): (28.1%) | GFR change from baseline <−5%, number of patients (week 20): 11 | GFR change from baseline <−5%, percent of patients (week 20): (34.4%) | GFR change from baseline >5%, number of patients (week 20): 8 | GFR change from baseline >5%, percent of patients (week 20): (25.0%) | GFR change from baseline −5% <= and <=5%, number of patients (week 20): 10 | GFR change from baseline −5% <= and <=5%, percent of patients (week 20): (31.3%) | UREA NITROGEN change from baseline <−5%, number of patients (week 20): 12 | UREA NITROGEN change from baseline <−5%, percent of patients (week 20): (37.5%) | UREA NITROGEN change from baseline >5%, number of patients (week 20): 11 | UREA NITROGEN change from baseline >5%, percent of patients (week 20): (34.4%) | UREA NITROGEN change from baseline −5% <= and <=5%, number of patients (week 20): 6 | UREA NITROGEN change from baseline −5% <= and <=5%, percent of patients (week 20): (18.8%) | CREATININE (RATE BLANKED) change from baseline <−5%, number of patients (week 24): 11 | CREATININE (RATE BLANKED) change from baseline <−5%, percent of patients (week 24): (34.4%) | CREATININE (RATE BLANKED) change from baseline >5%, number of patients (week 24): 9 | CREATININE (RATE BLANKED) change from baseline >5%, percent of patients (week 24): (28.1%) | CREATININE (RATE BLANKED) change from baseline −5% <= and <=5%, number of patients (week 24): 9 | CREATININE (RATE BLANKED) change from baseline −5% <= and <=5%, percent of patients (week 24): (28.1%) | GFR change from baseline <−5%, number of patients (week 24): 6 | GFR change from baseline <−5%, percent of patients (week 24): (18.8%) | GFR change from baseline >5%, number of patients (week 24): 14 | GFR change from baseline >5%, percent of patients (week 24): (43.8%) | GFR change from baseline −5% <= and <=5%, number of patients (week 24): 9 | GFR change from baseline −5% <= and <=5%, percent of patients (week 24): (28.1%) | UREA NITROGEN change from baseline <−5%, number of patients (week 24): 14 | UREA NITROGEN change from baseline <−5%, percent of patients (week 24): (43.8%) | UREA NITROGEN change from baseline >5%, number of patients (week 24): 13 | UREA NITROGEN change from baseline >5%, percent of patients (week 24): (40.6%) | UREA NITROGEN change from baseline −5% <= and <=5%, number of patients (week 24): 2 | UREA NITROGEN change from baseline −5% <= and <=5%, percent of patients (week 24): (6.3%) | percent of the group experiencing a decrease in GFR greater than 5% vs placebo (both groups receiving teduglutide): always less than the percent of the group receiving placebo | creatinine levels, average change versus baseline (FIG. 9) (groups receiving teduglutide, placebo increased): remained stable or decreased slightly
